Measured values published in patent US20040229950A1, “Method and composition with conjugated linoleic acid esters” (priority 2002, published 2004).
“And” between values parts separate entries of the source, which are not always exact repeats. Equal values may be shown once.

Experiments:
Human platelets [1] = assay: TXB2 production by platelets pretreated 1 hour with fatty acid/HSA; format: cell-based
Procedure: (§1) The following example illustrates the effect of CLA incorporation into platelet lipids on stimulating the release of endogenous AA and increasing the formation of TXB2. Platelets were prelabeled with either HSA alone or with 25 μM 9Z, 11Z-CLA/HSA for 1 hour at 37° C. After washing, the platelets were incubated for 15 minutes at room temperature, followed by the removal of the supernatants. The supernatants were then assayed for free […] content and TXB2 production. […] When the results of these three experiments are averaged, platelets treated with 9Z, 11Z-CLA stimulated […] release 414±155% and enhanced TXB2 formation 180±30%.
To compare the stimulatory effect of 9Z, 11Z-CLA on platelet TXB2 formation with other fatty acids, platelets were pretreated for 1 hour with HSA (control), or HSA complexed with either 9Z, 11Z-CLA, 9E,11E-CLA, linoleic acid (LA) or stearic acid (SA). The comparative effects of 25 μM 9Z, 11Z-CLA-, 9E, 11E-CLA-, LA- or SA-treated platelets on platelet TXB2 production is shown is FIG. 1. The values are the mean ±SD.

Human platelets [2] = assay: Release of endogenous AA from platelets prelabeled with CLA/HSA; format: cell-based
Procedure: as §1

Human platelets [3] = assay: TXB2 formation by platelets treated 2 hours with CLA isomer/HSA; format: cell-based; conditions: 25 μM, 2 hours at 37° C.; for TXB2 formation Fold stimulation: mean ± SD, 4 experiments
Procedure: Human platelets were treated for 2 hours at 37° C. with either HSA complexed with 25 μM of the indicated CLA isomer or with HSA alone. After washing, the platelets were maintained at room temperature for 15 minutes. The supernatants were then removed, the lipid content extracted with chloroform/methanol and the residue, after TLC separation, assayed for TXB2 formation by EIA. The results shown in Table 2 were similar to those obtained with CLA-prelabeled HUVECs. […] Also shown in Table 2 is that the CLA content of the platelet lipids increased from 0.03% to 0.23% after platelet treatment with 9Z, 11Z-CLA/HSA and to 0.66% after 10E, 12Z-CLA/HSA.

IL-1β-treated HUVECs = assay: 6-ketoPGF1a production from CLA-prelabeled HUVECs; format: cell-based, human; conditions: 25 μM; for HUVEC 6-ketoPGF1a formation fold-stimulation: overnight prelabeling, 15 minutes incubation, mean ± SD, 4 experiments; for range of fold increase in endogenous 6-ketoPGF1a formation: range over four separate experiments
Procedure: (§2) The following example illustrates the effect of CLA incorporation on 6-ketoPGF1a production from CLA-enriched HUVECs. Following the procedure described by Bordet (1990), IL-1β-treated HUVECs were first pre-enriched during an overnight incubation with human serum albumin (HSA) complexed with either 25 […] 9Z, 11Z-CLA/HSA, 25 μM 10E, 12Z-CLA/HSA or without added fatty acid (control). […] Insignificant differences in cell viabilities (as measured by LDH release) were observed between control cells and cells pretreated with HSA/CLA. After washing, the cells were incubated for 15 minutes, followed by removal of the supernatants, which were then assayed for 6-ketoPGF1a content by EIA. In four separate experiments, control HUVECs produced and released 42-1000 pg/ml of 6-ketoPGF1a.

[4] = tested on: human umbilical vein endothelial cells (HUVECs); assay: Inhibition of HUVEC 6-ketoPGF1a (PGI2) production by CLA in free fatty acid form; format: cell-based; conditions: CLA in the free fatty acid form
Procedure: As a consequence, the patent disclosed the use of CLAs to inhibit platelet thromboxane formation or platelet aggregation. […] All of these studies relate to the use of conjugated linoleic acids in the free fatty acid form.
as §2

[5] = experiment 1, 25 μM, 1 hour at 37° C.
[6] = 25 μM, 1 hour pretreatment, versus HSA control, Example 2

SMILES: CCCCCCC=CC=CCCCCCCCC(=O)O [9E, 11E-CLA, 9,11-octadecadienoic acid]
- inhibition at 25 µM (Human platelets [1]; Homo sapiens, Platelet, 25 μM, 1 hour pretreatment, versus HSA control, Example 2, read-out: inhibition of TXB2 formation (FIG. 1)): 37%

SMILES: CCCCCCC=CC=CCCCCCCCC(=O)O [9Z, 11Z-CLA, 9,11-octadecadienoic acid]
- activity at 25 µM (Human platelets [2]; Homo sapiens, Platelet, 1 hour, mean ± S.D. of three experiments, read-out: AA release, % of control, summary of experiments #1-3): 414 ± 155%
- AA release (Human platelets [2]; [5]): 27 µg/mL
- fold increase in TXB2 formation (Human platelets [1]; 25 μM prelabeling, relative to HSA/platelet controls): 2-4 fold and 2 fold
- TXB2 Control (%) (Human platelets [1]; 25 μM, 1 hour at 37° C., single experiments No. 1-3, relative to HSA alone, listed as HSA + ZZ): 146% and 192% and 203%
- stimulation of platelet TXB2 production (FIG. 1) (Human platelets [1]; [6]): 4 fold
- activity at 25 µM (Human platelets [1]; Homo sapiens, Platelet, 25 μM, 1 hour, mean ± S.D. of three experiments, read-out: TXB2 formation, % of control, summary of experiments #1-3): 180 ± 30%
- TXB2 formation (Human platelets [1]; [5]): 0.36 ng/mL
- TXB2 formation Fold stimulation (Human platelets [3]): 2.3 fold and 2.3 ± 1.0 (4) fold
- HUVEC 6-ketoPGF1a formation fold-stimulation (IL-1β-treated HUVECs): 8 fold
- HUVEC 6-ketoPGF1a formation fold-stimulation (IL-1β-treated HUVECs; listed as 9Z, 11Z): 8.1 ± 10 fold
- range of fold increase in endogenous 6-ketoPGF1a formation (IL-1β-treated HUVECs): 1.9-23 fold
- inhibition of HUVEC 6-ketoPGF1a / prostacyclin production [4]: but not 9Z, 11Z-CLA isomer, was an effective inhibitor

SMILES: CCCCCC=CC=CCCCCCCCCC(=O)O [10E, 12Z-CLA, 10,12-octadecadienoic acid]
- increase in formation and release of TXB2 (Human platelets [3]): 30%
- TXB2 formation Fold stimulation (Human platelets [3]): 1.3 ± 0.41 (4) fold
- HUVEC 6-ketoPGF1a formation fold-stimulation (IL-1β-treated HUVECs): 3 fold
- HUVEC 6-ketoPGF1a formation fold-stimulation (IL-1β-treated HUVECs; listed as 10E, 12Z): 3.5 ± 2.7 fold
- HUVEC 6-ketoPGF1a formation fold-stimulation (IL-1β-treated HUVECs; listed as 10E, 12Z isomer): not quite half as effective
- range of fold increase in endogenous 6-ketoPGF1a formation (IL-1β-treated HUVECs): 1.5-7.5 fold
- inhibition of HUVEC 6-ketoPGF1a / prostacyclin production [4]: effective inhibitor

SMILES: CCCCC/C=C\C/C=C\CCCCCCCC(=O)O [LA, linoleic acid]
- stimulation of platelet TXB2 production (FIG. 1) (Human platelets [1]; [6]): did not show an appreciable effect

SMILES: CCCCCCCCCCCCCCCCCC(=O)O [SA, stearic acid, reference compound]
- stimulation of platelet TXB2 production (FIG. 1) (Human platelets [1]; [6]): did not show an appreciable effect
